Assay results from article PMC11141368, “Antioxidant, antibacterial, enzyme inhibition and fluorescence characteristics of unsymmetrical thiourea derivatives” (Heliyon, 2024).
Values joined by “and” are separate entries in the source; they are usually repeats but may differ in a detail not shown here. Identical values can stand only once.

Key:
S. typhi = experiment: Antibacterial agar well diffusion; assay type: cell-based, Salmonella typhi (ATCC0650); settings: 24 h, 6.25 mg/mL per well, 37 °C; for zone of inhibition at 6250 µg/mL: Salmonella enterica, TYPHI
From the text: (§1) The antibacterial assay was done for all compounds (1–6) as described in previous studies. The mean number of viable organisms per milliliter of stock suspensions containing Escherichia coli (ATCC25922), Pseudomonas aeruginosa (ATCC27853), Salmonella typhi (ATCC0650), and Staphylococcus aureus (NCTC25953) was uncovered using the surface viable counting method. Preparations of suspensions containing approximately 108–109 colony forming units (CFU) per milliliter were made. Aseptic nutritional agar was formulated and transferred onto petri dishes. Cultures of bacteria were uniformly distributed on agar surface using sterile brush sticks. Five wells, each with a diameter of 6 mm, were made in each plate using a sterile borer. Afterwards, a concentration of 6.25 mg/mL of each component was applied to separate wells. Cephradine, a readily accessible antibiotic, was employed as a reference standard at an equivalent concentration. Following sealing, the agar dishes were incubated at a controlled temperature of 37 °C for a period of 24 h. The zone of inhibition in the plates was determined, which represents the inhibition of bacterial growth. Each sample zone of inhibition diameter was evaluated, and the antibacterial effectiveness of each drug was quantified according to the mean diameter of the inhibition zone (in millimetres).

P. aeruginosa = experiment: Antibacterial agar well diffusion; assay type: cell-based, Pseudomonas aeruginosa (ATCC27853); settings: Pseudomonas aeruginosa, 24 h, 6.25 mg/mL per well, 37 °C
From the text: as §1

[1] = molecular target: T1, acetylcholinesterase (AChE) (Electrophorus electricus, UniProt O42275); experiment: biochemical; settings: for inhibition at 62.5 µg/mL / inhibition at 125 µg/mL / inhibition at 250 µg/mL / inhibition at 500 µg/mL / inhibition at 1000 µg/mL: read-out: AChE Percent inhibition
T1 construct: The AChE was derived from the electric eel, while BChE was obtained from equineserum; from tissue; host or cells: electric eel (tissue not specified)
T1 sequence (O42275 24-633): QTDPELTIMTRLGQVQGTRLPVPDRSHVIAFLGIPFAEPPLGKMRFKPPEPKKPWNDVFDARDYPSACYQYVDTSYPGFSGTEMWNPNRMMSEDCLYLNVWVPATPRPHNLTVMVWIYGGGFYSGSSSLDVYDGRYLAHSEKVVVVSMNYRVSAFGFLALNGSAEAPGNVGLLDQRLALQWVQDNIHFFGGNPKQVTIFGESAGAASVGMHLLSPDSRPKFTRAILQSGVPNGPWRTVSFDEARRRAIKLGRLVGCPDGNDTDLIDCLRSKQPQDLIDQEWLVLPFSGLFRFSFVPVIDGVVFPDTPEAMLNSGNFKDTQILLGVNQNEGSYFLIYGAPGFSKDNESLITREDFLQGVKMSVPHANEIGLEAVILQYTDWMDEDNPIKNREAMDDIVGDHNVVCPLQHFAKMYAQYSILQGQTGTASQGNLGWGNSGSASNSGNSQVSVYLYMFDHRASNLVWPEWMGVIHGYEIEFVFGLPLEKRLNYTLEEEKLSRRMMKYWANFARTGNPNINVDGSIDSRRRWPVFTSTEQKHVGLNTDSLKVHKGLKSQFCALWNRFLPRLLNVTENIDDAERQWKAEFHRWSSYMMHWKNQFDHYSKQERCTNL
Protocol: (§2) This assay employed two enzymes, namely acetylcholinesterase (AChE) and butyryl cholinesterase (BChE). The AChE was derived from the electric eel, while BChE was obtained from equineserum. The synthesized compounds were dissolved in phosphate buffer (0.1 M, pH 8.0). The enzymes AChE (518 U/mg) and BChE (7–16 U/mg) were diluted in a 0.1 M phosphate buffer to achieve concentrations of 0.03 U/mL and 0.01 U/mL, respectively. Preparations of ATchI (0.5 mM), DTNB (0.2273 mM), and BTchI (0.5 mM) were made in distilled water and stored at a low temperature of 8 °C. […] The solution was heated to 30 °C for 15 min, followed by the gradual addition of the substrate. Absorbance of the heated sample at 412 nm was measured using a double beam spectrophotometer. […] The percentage activity (A) and inhibition of the enzyme were determined by applying the rate of absorption as a function of time (V=ΔAbs/Δt) using the following equation (Equation (2)).(2) %Inhibition=V/Vmax×100 Where V = enzyme inhibition activity of products and Vmax = enzyme activity without test of product.

[2] = molecular target: T2, butyryl cholinesterase (BChE) (Equus caballus, UniProt P81908); experiment: Anticholinesterase assay (Elman's test), BChE; assay type: biochemical; settings: for inhibition at 62.5 µg/mL / inhibition at 125 µg/mL / inhibition at 250 µg/mL / inhibition at 500 µg/mL / inhibition at 1000 µg/mL: read-out: BChE Percent inhibition
T2 construct: The AChE was derived from the electric eel, while BChE was obtained from equineserum; from tissue; host or cells: equine serum
T2 sequence (P81908 whole entry): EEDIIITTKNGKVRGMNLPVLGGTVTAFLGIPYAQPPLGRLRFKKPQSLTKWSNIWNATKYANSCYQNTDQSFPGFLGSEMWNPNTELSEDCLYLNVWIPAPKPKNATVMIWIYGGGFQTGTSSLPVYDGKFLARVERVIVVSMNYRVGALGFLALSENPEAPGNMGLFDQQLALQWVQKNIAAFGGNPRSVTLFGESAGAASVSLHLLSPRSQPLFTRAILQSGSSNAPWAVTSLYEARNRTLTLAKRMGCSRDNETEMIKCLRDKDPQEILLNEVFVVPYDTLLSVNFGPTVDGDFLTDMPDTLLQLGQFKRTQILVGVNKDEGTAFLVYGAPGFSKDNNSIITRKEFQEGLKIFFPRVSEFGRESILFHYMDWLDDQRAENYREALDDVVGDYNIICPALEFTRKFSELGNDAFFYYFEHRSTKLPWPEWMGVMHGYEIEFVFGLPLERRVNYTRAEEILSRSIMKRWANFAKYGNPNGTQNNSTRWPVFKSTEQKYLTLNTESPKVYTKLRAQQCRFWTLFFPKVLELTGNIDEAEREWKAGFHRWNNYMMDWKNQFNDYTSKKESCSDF
Protocol: as §2

E. coli = experiment: Antibacterial agar well diffusion; assay type: cell-based, Escherichia coli (ATCC25922); settings: Escherichia coli, 24 h, 6.25 mg/mL per well, 37 °C
From the text: as §1

[3] = DPPH free radical scavenging assay; assay type: biochemical
Protocol: (§3) In accordance with the procedure described in the literature, the ABTS activity assay was applied to evaluate the free radical scavenging capabilities of the synthesized compounds (1–6). ABTS solution was prepared by mixing 7 mM ABTS and 2.45 mM potassium persulfate and was then placed for 16 h under dark at room temperature. A methanol dilution was performed on the solution to achieve an absorbance of 0.706 ± 0.001 at 734 nm before starting the assay. To quantify the assay, 3 mL of the ABTS solution has been added to different concentrations (ranging from 62.5 to 1000 μg/mL) of every compound (300 μL) that were dissolved in methanol. Then after 1 min of incubation, the absorbance was continuously measured for 5 min. To confirm precision, all experiments were conducted in triplicate. The antioxidant capacities of the compounds were assessed with gallic acid as a reference, and the ability to remove free radicals was calculated as a percentage for each compound employing Equation.1 as presented below. Additionally, the DPPH free radical scavenging method was employed to assess the antioxidant activity of compounds (1–6), in accordance with a widely recognized procedure documented in existing literature. Concentrations ranging from 62.5 to 1000 μg/mL of compounds (1–6), dissolved in methanol, were introduced into a 2 mL solution of DPPH (0.002 % in methanol). The resulting solutions were kept in the dark at room temperature for a duration of 30 min. The amount of light absorbed by the solutions was then determined using a UV/vis spectrophotometer at a wavelength of 517 nm. The investigations were performed three times, using the exact protocol described for the ABTS scavenging assay. Afterwards, the antioxidant capabilities of each molecule were assessed using calculation.(1) Scavengingactivity(%)=A−B/A×100
(§4) Where, A = absorbance of ABTS/DPPH and B = absorbance of solution containing ABTS/DPPH and test samples.

[4] = ABTS free radical scavenging assay; assay type: biochemical
Protocol: as §3, §4

S. flexenari = experiment: Antibacterial agar well diffusion; assay type: cell-based; settings: 24 h, 6.25 mg/mL per well, 37 °C

| SMILES | zone of inhibition at 6250 µg/mL (S. typhi) [mm] | zone of inhibition at 6250 µg/mL (P. aeruginosa) [mm] | IC50 [1] | inhibition at 62.5 µg/mL [1] [%] | inhibition at 125 µg/mL [1] [%] | inhibition at 250 µg/mL [1] [%] | inhibition at 500 µg/mL [1] [%] | inhibition at 1000 µg/mL [1] [%] | IC50 [2] [µM] | inhibition at 62.5 µg/mL [2] [%] | inhibition at 125 µg/mL [2] [%] | inhibition at 250 µg/mL [2] [%] | inhibition at 500 µg/mL [2] [%] | inhibition at 1000 µg/mL [2] [%] | zone of inhibition at 6250 µg/mL (E. coli) [mm] | DPPH IC50 [3] [µg/mL] | DPPH %inhibition ([3]; 62.5 μg/mL) [%] | DPPH %inhibition ([3]; 125 μg/mL) [%] | DPPH %inhibition ([3]; 250 μg/mL) [%] | DPPH %inhibition ([3]; 500 μg/mL) [%] | other results |
| --- | --- | --- | --- | --- | --- | --- | --- | --- | --- | --- | --- | --- | --- | --- | --- | --- | --- | --- | --- | --- | --- |
| S=C(Nc1ccccc1)Nc1cccc(Cl)c1 [Compound 6, 1-(3-chlorophenyl)-3-phenylthiourea] | 9.5 | 15.5 | 329 µM | 47.61 ± 0.43 | 52.7 ± 1.01 | 57.8 ± 1.5 | 62.84 ± 0.3 | 67.51 ± 0.54 | 216 | 51.61 ± 0.43 | 55.1 ± 0.6 | 61.2 ± 1.4 | 66.8 ± 7.85 | 71.6 ± 1.63 | 8.5 | 90.30 | 43.49 ± 2.72 | 53.66 ± 1.17 | 61.47 ± 2.74 | 76.24 ± 2.61 | DPPH %inhibition ([3]; 1000 μg/mL): 82.19 ± 2.32%; ABTS IC50 [4]: 86.03 µg/mL; ABTS %inhibition ([4]; 62.5 μg/mL): 44.27 ± 1.53%; ABTS %inhibition ([4]; 125 μg/mL): 53.26 ± 2.76%; ABTS %inhibition ([4]; 250 μg/mL): 63.09 ± 1.34%; ABTS %inhibition ([4]; 500 μg/mL): 75.19 ± 2.59%; ABTS %inhibition ([4]; 1000 μg/mL): 81.28 ± 2.17%; zone of inhibition at 6250 µg/mL (S. flexenari): 10.5 mm |
| S=C(Nc1ccccn1)NC1CCCCC1 [Compound 1, 1-cyclohexyl-3-(pyridin-2-yl) thiourea] | 10 | 9 | 115 µM and 117 µM | 62.44 ± 0.58 | 67.6 ± 1.73 | 74.3 ± 2.15 | 81.7 ± 1.34 | 88.6 ± 1.12 | 96 | 65.8 ± 1.5 | 71.6 ± 1.06 | 76.42 ± 0.43 | 84.2 ± 1.83 | 91.76 ± 0.71 | 9.5 | 63.02 | 48.57 ± 2.03 | 54.32 ± 1.89 | 63.01 ± 1.65 | 75.63 ± 2.60 | DPPH %inhibition ([3]; 1000 μg/mL): 85.10 ± 1.45%; ABTS IC50 [4]: 67.08 µg/mL; ABTS %inhibition ([4]; 62.5 μg/mL): 47.65 ± 1.74%; ABTS %inhibition ([4]; 125 μg/mL): 54.45 ± 0.96%; ABTS %inhibition ([4]; 250 μg/mL): 63.59 ± 2.50%; ABTS %inhibition ([4]; 500 μg/mL): 72.20 ± 1.90%; ABTS %inhibition ([4]; 1000 μg/mL): 84.81 ± 1.17%; zone of inhibition at 6250 µg/mL (S. flexenari): 8.5 mm |
| CC1=C(C(=O)O)N2C(=O)[C@@H](NC(=O)[C@H](N)C3=CCC=CC3)[C@H]2SC1 [Std.Drug, Cephradine, reference compound] | 15 |  |  |  |  |  |  |  |  |  |  |  |  |  |  |  |  |  |  |  | Zone of inhibition (S. typhi): 25 mm and 20 mm and 14 mm and 13 mm |
| COc1ccc2c3c1O[C@H]1C[C@@H](O)C=C[C@@]31CCN(C)C2 [Galantamine, reference compound] |  |  |  |  |  |  |  |  |  | 64.9 ± 0.87 | 67.9 ± 0.98 |  | 81.83 ± 0.37 | 89.64 ± 0.62 |  |  |  |  |  |  |  |
